These results are taken from patent publication US5124332A, “Substituted indoles as central nervous system agents” (Warner-Lambert Company, priority 1991, dated 1992).

The subject of test [1] is locomotor activity in mice. The test can be described thus: Inhibition of locomotor activity in mice. To be noted: Mus musculus, read-out: Inhibition of Locomotor Activity in Mice ED50. In kind it is in vivo. On the procedure:
(§1) The compounds of Formula I are valuable dopaminergic agents. […] Thus, the compounds of Formula I were tested for their ability to inhibit locomotor activity in mice according to the assay described by J. R. McLean, et al, Pharmacology, Biochemistry and Behavior, Volume 8, pages 97-99 (1978); and for their ability to inhibit [^3 H]-spiroperidol binding in a receptor assay described by D. Grigoriadis and P. Seman, Journal of Neurochemistry, Volume 44, pages 1925-1935 (1985). The above test methods are incorporated herein by reference. The data in the table show the dopaminergic activity of representative compounds of Formula I.

The target in test [2] is T1, [^3 H]-spiroperidol binding (Homo sapiens, UniProt P14416).
T1 construct: from tissue; own knowledge of the cited 1985 method, which predates the cloning of D2)
T1 sequence (P14416 whole entry): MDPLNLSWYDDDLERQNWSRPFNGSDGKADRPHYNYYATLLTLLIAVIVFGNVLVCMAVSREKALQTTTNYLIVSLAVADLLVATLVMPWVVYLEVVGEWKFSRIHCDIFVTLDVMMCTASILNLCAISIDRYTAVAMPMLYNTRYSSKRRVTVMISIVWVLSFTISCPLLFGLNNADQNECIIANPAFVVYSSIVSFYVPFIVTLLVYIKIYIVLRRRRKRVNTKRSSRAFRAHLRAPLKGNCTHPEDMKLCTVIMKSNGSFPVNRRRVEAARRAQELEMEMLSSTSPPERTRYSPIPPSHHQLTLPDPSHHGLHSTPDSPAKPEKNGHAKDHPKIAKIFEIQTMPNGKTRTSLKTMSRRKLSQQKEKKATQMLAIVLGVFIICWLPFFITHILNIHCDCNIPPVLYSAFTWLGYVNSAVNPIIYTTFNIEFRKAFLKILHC
The test can be described thus: Inhibition of [^3 H]-spiroperidol binding in a receptor assay. The procedure: as §1

The mark [3] stands for this setting: [^3 H]spiroperidol, receptor assay, read-out: Inhibition of [^3 H]Spiroperidol Binding IC50.

SMILES strings stand for the structures. pIC50: −log10 of the molar value. Structures can show the parent of a compound that is named as a salt. Where two headings read alike, the source gives them in different places.

As usually defined, the ED50 is the dose at which the effect has come halfway, by size or by number of responders. As usually defined, the pIC50 is −log10 of the IC50, conventionally taken in molar units. On to `C1=C(c2c[nH]c3ccccc23)CCC(CCN2CCN(c3ccccn3)CC2)C1` (stereo not shown) [Example 16], for which the ED50 in test [1] (mice, IP) was determined as 6.25 mg/kg. In addition, the pIC50 in test [2] (setting [3]) is 6.57.
The like results for `c1cnc(N2CCN(CC[C@H]3CC[C@H](c4c[nH]c5ccccc54)CC3)CC2)nc1` [Example 3, Trans 3-[4-[2-[4-(2-pyrimidinyl)-1-piperazinyl]ethyl]cyclohexyl]-1H-indole,hydrochloride] were, in that order, 3.3 mg/kg and 6.65.
With `C1=C(c2ccccc2)CCN(CC[C@H]2CC[C@@H](c3c[nH]c4ccccc43)CC2)C1` [Example 6, Cis 3-[4-[2-(3,6-dihydro-4-phenyl-1(2H)-pyridinyl)ethyl]cyclohexyl]-1H-indole], the ED50 in test [1] (ip) came to 16.6 mg/kg. This molecule also gave a pIC50 in test [2] of 7.41.
As for `c1ccc(N2CCN(CC[C@H]3CC[C@@H](c4c[nH]c5ccccc54)CC3)CC2)nc1` [Example 2, Cis 3-[4-[2-[4-(2-pyridinyl)-1-piperazinyl]ethyl]cyclohexyl]-1H-indole], in test [1] (mice, IP), the ED50 was 4.7 mg/kg. For the same molecule, the pIC50 in test [2] (setting [3]) was 6.71.
On to `C1=C(c2ccccc2)CCN(CC[C@H]2CC[C@H](c3c[nH]c4ccccc43)CC2)C1` [Example 5, Trans 3-[4-[2-(3,6-dihydro-4-phenyl-1(2H)-pyridinyl)ethyl]cyclohexyl]-1H-indole], for which, in test [1] (ip), the ED50 came out at 9 mg/kg. The molecule also gave a pIC50 in test [2] of 7.92.
On to `C1=C(c2cccs2)CCN(CC[C@H]2CC[C@H](c3c[nH]c4ccccc43)CC2)C1` [Example 7, Trans 3-[4-[2-(3,6-dihydro-4-(2-thienyl)-1(2H)-pyridinyl)ethyl]cyclohexyl]-1H-indole], for which the ED50 in test [1] (ip) came to 11.7 mg/kg. Further, the pIC50 in test [2] (setting [3]) is 6.06.
Turning to `c1cnc(N2CCN(CC[C@H]3CC[C@@H](c4c[nH]c5ccccc54)CC3)CC2)nc1` [Example 4, Cis 3-[4-[2-[4-(2-pyrimidinyl)-1-piperazinyl]ethyl]cyclohexyl]-1H-indole, hydrochloride], in test [1] (mice, IP), the ED50 stood at 8.6 mg/kg. In addition, the pIC50 in test [2] (setting [3]) is 6.46.
In the case of `c1ccc(N2CCN(CC[C@H]3CC[C@H](c4c[nH]c5ccccc54)CC3)CC2)nc1` [Example 1, trans 3-[4-[2-[4-(2-pyridinyl)-1-piperazinyl]ethyl]cyclohexyl]-1H-indole], the ED50 in test [1] (mice, IP) stood at 1.4 mg/kg. The pIC50 in test [2] (setting [3]) is 7.16.
